Laboratory results published in article PMC8016166, “Identification of a Potent and Selective 5-HT1A Receptor Agonist with In Vitro and In Vivo Antinociceptive Activity” (ACS Chemical Neuroscience, 2020).

Legend:
male Albino Swiss mice = experiment: Hot plate test; type: in vivo, mouse
Experimental: The experiments were performed on male Albino Swiss mice (20–25 g), where 4 animals were kept in a cage, in an environmentally controlled room (ambient temperature 22 ± 1 °C; relative humidity 50–60%; 12 h light/dark cycle, lights on at 8:00). Standard laboratory food (LSM, Agropol-Motycz, Poland) and filtered water were available ad libitum. All the behavioral experiments were carried out in accordance with the European Community Council Directive for Care and Use of Laboratory Animals (2010/63/EU) (2016), and approved by the Local Ethics Committee for Animal Experimentation. The tested compounds were administered intraperitoneally (i.p.), dissolved in DMSO (its final concentration of 0.1%), suspended in 0.5% Tween-80 (1–2 drops) and then diluted using an aqueous solution of 0.5% methylcellulose (tylose). All the compounds were given in a manner generally accepted in experimental pharmacology, in a volume of 10 mL/kg body weight. The animals were weighed immediately before injection. Each group consisted of 8 members. The control animals received an equivalent volume of the solvent at the respective time before the tests. […] Between injections, the mice were provided with stable living conditions and unrestricted access to food and water. All the experiments were conducted in the light phase between 09.00 a.m. and 05.00 p.m. For the hot plate test, the mice were placed on a hot plate (Ugo Basile Srl, Gemonio, Italy) maintained at a constant temperature of 55 °C with a cutoff time of 20 s. The baseline latency response (in seconds), induced by the thermal stimulus, with the mouse lifting either of the hind paws or jumping with all four feet off the hot plate, before administration of a compound was measured first. The animals were then administered with compounds and the post-treatment latency responses were determined at 30 min time intervals up to 180 min after drug injection. The antinociceptive effects of the compounds were expressed as a percentage of maximum possible effect (%MPE), which was calculated according to the following equation: [(T1 – T0)/(20 – T0)] × 100, where T0 and T1 are the predrug and post-drug latencies for hot plate response, respectively.[37],[38] The results were calculated using the one-way analysis of variance (ANOVA) followed by Bonferroni’s post hoc test. The results are presented as the means ± standard errors of mean (S.E.M.). The level of p < 0.05 was considered statistically significant. All the figures were prepared using the GraphPad Prism ver. 5.00 for Windows (GraphPad Software, San Diego, CA, USA), www.graphpad.com.

[1] = system: superficial dorsal horn neurons (lamina I–II); experiment: Patch-clamp recording from spinal cord slices; type: cell-based, mouse; settings: for neurons showing slow outward current: voltage clamp −60 mV
Experimental: The Italian Ministry of Health approved all the experiments that were conducted on postnatal CD1 mice (P18–P25) in accordance with the Guide for the Care and Use of Laboratory Animals and the EU and Italian regulations on animal welfare. The spinal cord slices were obtained following the procedure described previously.[69],[70] Briefly, the animals were anesthetized with isoflurane and decapitated, the spinal cord and vertebrae were rapidly removed and placed in ice-cold dissecting Krebs’ solution (composition in mM:125 NaCl, 2.5 KCl, 1.25 NaH2PO4, 26 NaHCO3, 25 glucose, 6 MgCl2, 1.5 CaCl2, and 1 kynurenic acid, pH 7.4, 320 mOsm), bubbled with 95% O2, 5% CO2. The lumbar spinal cord was isolated, embedded in an agarose block (low melting point agarose 3%, Thermo Fisher Scientific, Waltham, USA), and transverse slices (500 μm thick) were obtained using a vibrating microtome (WPI, Sarasota, USA). The slices were incubated in oxygenated incubation Krebs’ solution (the same as dissecting but without kynurenic acid) at 35 °C for 30 min and used for recording. The Patch-clamp recording in whole-cell configuration was performed on lamina I–II neurons at room temperature. The slices were perfused at 2 mL/min with recording Krebs’solution (in mM: 125 NaCl, 2.5 KCl, 1.25 NaH2PO4, 26 NaHCO3, 25 glucose, 1 MgCl2, and 2 CaCl2, pH 7.4, 320 mOsm). Recordings of post-synaptic currents (EPSCs) were performed in voltage clamp, by using an intracellular solution with the following composition (in mM): 120 potassium methanesulfonate, 10 NaCl, 10 EGTA, 1 CaCl2, 10 HEPES, 5 ATP-Mg, pH adjusted to 7.2 with KOH, osmolarity 300 mOsm. 8-OH-DPAT was obtained from Sigma-Aldrich (Saint Louis, USA). The data were recorded and acquired using a Multiclamp 700A amplifier and the pClamp 10 software (Molecular Devices, Sunnyvale, USA). The sampling rate was 10 kHz, and the data were filtered at 2 kHz. The data were analyzed off-line using pClamp10 software and Minianalysis (Synaptosoft, USA). The data are expressed as the mean ± SEM and differences were considered significant for p < 0.05. The statistical significance for the effect on EPSC frequency was determined using the Kolmogorov–Smirnov test on individual neurons.

5-HT1AR [2] = biological target: 5-HT1AR; set-up: method as in PMID 30043643; settings: previous work; cited from earlier work
α1 = system: α1; set-up: method as in PMID 30043643; settings: previous work; cited from earlier work
5-HT1AR [3] = system: 5-HT1AR; set-up: method as in PMID 30043643; settings: previous work, cited from earlier work; for potency pD2: agonist, GTPγS assay
MDCK-MDR1 monolayers = system: MDCK-MDR1 monolayers; set-up: method as in PMID 30043643; settings: cited from earlier work

Row | SMILES | MPE values in the hot plate test (male Albino Swiss mice; mice, 5, 10 and 20 mg/kg i.p., 30-180 min) | neurons showing sEPSC frequency decrease ([1]; 50 μM) | neurons showing slow outward current ([1]; 50 μM) | neurons showing slow outward current ([1]; bath application 10 μM) | 5-HT1AR affinity pKi (5-HT1AR [2]) | selectivity 5-HT1A/α1 (α1) | potency pD2 (5-HT1AR [3]) | efflux ratio (MDCK-MDR1 monolayers; MDCK-MDR1 monolayers) | permeation of MDCK-MDR1 monolayers mimicking the BBB (MDCK-MDR1 monolayers) | relative effectiveness (Emax) (5-HT1AR [3]) | reaction time to the thermal stimulus (hot plate) (male Albino Swiss mice; mice, 5 mg/kg i.p.) | reaction time to the thermal stimulus (hot plate) (male Albino Swiss mice; mice, 10 mg/kg i.p., 30, 90, 120 and 180 min) | reaction time to the thermal stimulus (hot plate) (male Albino Swiss mice; mice, 20 mg/kg i.p., 30, 90, 120 and 180 min) | antinociceptive effect in hot plate with WAY-100635 (male Albino Swiss mice; mice, (S)-1 10 mg/kg + WAY-100635 3 mg/kg, at 30 min) | neurons showing sEPSC frequency decrease ([1]; 10 μM) | neurons showing outward current in presence of naloxone ([1]; 10 μM (S)-1, naloxone present) | neurons showing significant decrease in sEPSC frequency in presence of naloxone ([1]; 10 μM (S)-1, naloxone present) | outward current in presence of WAY-100635 ([1]; (S)-1 with WAY-100635 10 μM, 7 neurons tested)
1 | c1ccc(C2(c3ccccc3)OCC(CNCCOc3ccccc3-c3ccncc3)O2)cc1 (racemic) [rac-1, N-[(2,2-diphenyl-1,3-dioxolan-4-yl)methyl]-2-[2-(pyridin-4-yl)phenoxy]ethan-1-ammonium hydrogenoxalate] | did not reveal any significant change in the MPE values | 7 out of 23 | 5 out of 23 | not effective | 9.2 | 135 | 8.83 | low | permeate, by passive diffusion | – | – | – | – | – | – | – | – | –
2 | Cn1cncc1-c1ccccc1OCCNCC1COC(c2ccccc2)(c2ccccc2)O1 (racemic) [rac-2, N-((2,2-diphenyl-1,3-dioxolan-4-yl)methyl)-2-(2-(1-methyl-1H-imidazol-5-yl)phenoxy)ethan-1-ammonium hydrogenoxalate] | – | – | – | – | 8.98 | 132 | 5.46 | – | – | 240% | – | – | – | – | – | – | – | –
3 | c1ccc(C2(c3ccccc3)OC[C@H](CNCCOc3ccccc3-c3ccncc3)O2)cc1 [(S)-1, N-[(2,2-Diphenyl-1,3-dioxolan-4-yl)methyl]-2-[2-(pyridin-4-yl)phenoxy]ethan-1-ammonium hydrogenoxalate] | – | – | – | 5 out of 12 | – | – | – | – | – | – | a significant effect was only noted at 120 and 180 min | significantly increased | significantly increased the reaction time | significantly reversed the antinociceptive effect | 5 out of 12 | 5 out of 12 | 6 out of 12 | failed to evoke the outward currents
